Data taken from PMC12661400, “Oral bioavailable ITRI-148 degrades androgen receptor variants and overcomes antiandrogen resistance in advanced prostate cancer” (Neoplasia (New York, N.Y.), 2025).

Assays:
VCaP xenografts = experiment: Castrated VCaP xenograft study; format: in vivo; conditions: for tumor growth inhibition (TGI): castrated mice
Source text: (§1) Immunodifficient male CB-17 SCID mice (CB17/Icr-Prkdc^scid/IcrIcoCrlBltw) and NOD SCID mice (NOD.CB17-Prkdc^scid/NCrCrlBltw) mice at four to six weeks of age were purchased from BioLASCO Taiwan Co., Ilan, Taiwan. All mice were housed in conventional cages in the AAALAC Full Accreditation (2011) in Industrial Technology Research Institute and were allowed to acclimatize and recover from shipping-related stress for one week prior to the study. The health of the mice was monitored by daily observations. Animals were kept in rooms at temperature of 22–26°C with 40–70 % humidity, positive pressure, 60 % air recirculation, ventilation rate 15–20 changes per hour, and a controlled light-dark cycle (12–12 hours). The order and location of each animal cage was randomly assigned to minimize potential confounders. CWR22Rv1 cells (5 × 10^6) were suspended in 100 μL of PBS with 30 % Matrigel and subcutaneously implanted into the right flank of male CB-17 SCID mice. Tumors were measured with calipers, and tumor size was calculated as follows: tumor volume (V) = (L × S^2)/2 (L, longest diameter, mm; S, shortest diameter, mm). When mean tumor volume reached 150–200 mm^3, the mice were randomly assigned into indicated groups (n = 5-6/ group) and the day of initiating treatments was assigned as day 0. VCaP cells (5 × 10⁶) suspended in 50 % Matrigel were subcutaneously implanted into male NOD SCID mice. Once tumors reached approximately 250 mm³, castration surgery was performed. After tumor regression and subsequent regrowth to around 250 mm³, treatment with ITRI-148 was initiated. Oral (PO) gavage was used for the drug administration, including vehicle control and ITRI-148 treatments (7.5 mg/kg, 15 mg/kg, 30 mg/kg, or 60 mg/kg, BID). Tumor size and body weight of the animals were monitored and recorded two to three times per week. Mice were sacrificed when one of the tumor reached over 1000 mm^3 in size. Tumors were collected and immediately subjected to liquid nitrogen freezing and homogenization. The homogenized tumor samples were stored at −80°C for subsequent western blotting analysis. The drug antitumor efficacy was presented as percentages of TGI of each tested animal, calculated as follows: [1 − (final tumor volume ^treated group – initial tumor volume ^treated group) / (final tumor volume ^vehicle group – initial tumor volume ^vehicle group)] × 100. Body weight of each mouse was also compared to that on the first day of treatment (day 0) and expressed as a percentage of day 0 value. All data points were included for calculation and the values are presented as mean ± SEM. Statistical analysis of the differences between two drug and vehicle treated groups was determined by two-tailed Student’s t-test.

[1] = Metabolic stability in liver microsomes; format: in vitro ADME; conditions: for Remaining of intact drug (%): 1 μM, incubation up to 60 minutes; for half-life at 1 μM: pH 7.4, read-out: Plasma Stability t1/2 (microsome panel)
Method: The metabolic stability of all PROTAC compounds in the screening phase (Table 1) was evaluated using mouse liver microsomes. Incubations were performed at 37 °C in phosphate buffer (pH 7.4) containing NADPH (1 mM), 0.5 mg/mL microsomal protein and 1 μM ITRI-148 (0.25 % DMSO) for 0, 5, 20, or 30 minutes, followed by quenching with acetonitrile (1:3, v/v) for HPLC analysis. To evaluate the species-specific metabolism of ITRI-148, its stability was assessed in liver microsomes from human, dog, rat, and mouse using same incubation conditions as above, with the time extending to 0, 15, 30, 45, and 60 minutes, followed by acetonitrile quenching (1:10) and LC-MS/MS analysis.

[2] = In vitro stability in plasma; format: in vitro ADME; conditions: for Remaining of intact drug (%): 1 μM, incubation up to 4 hours; for half-life at 1 μM: read-out: Plasma Stability t1/2
Method: The stability of ITRI-148 was assessed in plasma across four species: humans, dogs, rats, and mice. ITRI-148 added to pre-warmed plasma at 1 μM was maintained at the designated temperature, and aliquots were collected at 0, 0.5, 1, 2, and 4 hours after incubation. At each time point, 20 μL of the samples was taken to terminate the reaction, followed by LC-MS/MS analysis to determine the remaining compound concentration. Data from duplicated experiments was calculated and presented as mean ± SD.

CWR22Rv1 xenografts = experiment: Hormone-intact CWR22Rv1 xenograft study; format: in vivo
Source text: as §1, with “Once tumors reached approximately 250 mm³, castration surgery was performed. After tumor regression and subsequent regrowth to around 250 mm³, treatment with ITRI-148 was initiated. Oral (PO) gavage was used for the drug administration, including vehicle control and ITRI-148 treatments (7.5 mg/kg, 15 mg/kg, 30 mg/kg, or 60 mg/kg, BID).” left out, “Mice were sacrificed when one of the tumor reached over 1000 mm^3 in size. Tumors were collected and immediately subjected to liquid nitrogen freezing and homogenization. The homogenized tumor samples were stored at −80°C for subsequent western blotting analysis.” left out, “All data points were included for calculation and the values are presented as mean ± SEM.” left out

O=C1CCC(N2C(=O)c3cccc(NCC(=O)N4CCC(N5CCC(C#Cc6ccc(C7CCN(C8=Nn9c(nnc9C(F)(F)F)CC8)CC7)cc6)CC5)CC4)c3C2=O)C(=O)N1 (stereo not shown) [ITRI-148]
toxicity reflected by weight-loss of the animals (VCaP xenografts; PO 7.5-30 mg/kg BID): No toxicity reflected by weight-loss of the animals was observed
tumor growth inhibition (TGI) (VCaP xenografts; PO 7.5 mg/kg BID): 49.06%
tumor growth inhibition (TGI) (VCaP xenografts; PO 15 mg/kg BID): 95.08%
tumor growth inhibition (TGI) (VCaP xenografts; PO 30 mg/kg BID, average): 147.07%
Remaining of intact drug (%) ([1]; dog liver microsomes): 88.3 ± 4.3%
Remaining of intact drug (%) ([1]; human liver microsomes): 85.9 ± 2.2%
half-life at 1 μM ([1]; dog liver microsomes): > 60 min
half-life at 1 μM ([1]; human liver microsomes): > 60 min
half-life at 1 μM ([1]; rat liver microsomes): > 60 min
Remaining of intact drug (%) ([1]; rat liver microsomes): 75.3 ± 1.2%
Remaining of intact drug (%) ([2]; dog plasma): 79.4 ± 0.6%
half-life at 1 μM ([2]; dog plasma): > 240 min
Remaining of intact drug (%) ([2]; human plasma): 86.9 ± 5.2%
half-life at 1 μM ([2]; human plasma): > 240 min
Remaining of intact drug (%) ([2]; rat plasma): 62.1 ± 5.8%
half-life at 1 μM ([2]; rat plasma): > 240 min
toxicity reflected by weight-loss of the animals (CWR22Rv1 xenografts; PO 30-60 mg/kg BID): No toxicity reflected by weight-loss of the animals was observed
tumor growth inhibition (TGI) (CWR22Rv1 xenografts; oral 30 mg/kg BID): 38.08%
tumor growth inhibition (TGI) (CWR22Rv1 xenografts; oral 60 mg/kg BID): 69.39%
